The source made the active and inactive calls. The rule behind the calls is not given here.
Test system: CCRIS mutagenicity, Ames/micronucleus/aberration tests
Assay: CCRIS mutagenicity studies

Structure (SMILES): CC(=O)Oc1ccccc1C(=O)O
- mutagenic call (End Point: IN VITRO MICRONUCLEUS, Test System: CHL/IU CELLS, Metabolic Activation: NONE): active; positive
- mutagenic call (End Point: IN VITRO MICRONUCLEUS, Test System: RAT KIDNEY FIBROBLAST NRK-49F, Metabolic Activation: NONE): inactive; negative
- mutagenic call (Test System: AMES SALMONELLA TYPHIMURIUM, Strain/Indicator: TA97, Metabolic Activation: HAMSTER, LIVER, S-9, AROCLOR 1254 (10%), Method: PREINCUBATION): inactive; negative
- mutagenic call (Test System: AMES SALMONELLA TYPHIMURIUM, Strain/Indicator: TA97, Metabolic Activation: HAMSTER, LIVER, S-9, AROCLOR 1254 (30%), Method: PREINCUBATION): inactive; negative
- mutagenic call (Test System: AMES SALMONELLA TYPHIMURIUM, Strain/Indicator: TA97, Metabolic Activation: NONE, Method: PREINCUBATION): inactive; negative
- mutagenic call (Test System: AMES SALMONELLA TYPHIMURIUM, Strain/Indicator: TA97, Metabolic Activation: RAT, LIVER, S-9, AROCLOR 1254 (10%), Method: PREINCUBATION): inactive; negative
- mutagenic call (Test System: AMES SALMONELLA TYPHIMURIUM, Strain/Indicator: TA97, Metabolic Activation: RAT, LIVER, S-9, AROCLOR 1254 (30%), Method: PREINCUBATION): inactive; negative
- mutagenic call (Test System: AMES SALMONELLA TYPHIMURIUM, Strain/Indicator: TA98, Metabolic Activation: GUINEA PIG, LIVER, S-9, PCB, Method: PREINCUBATION): inactive; negative
- mutagenic call (Test System: AMES SALMONELLA TYPHIMURIUM, Strain/Indicator: TA98, Metabolic Activation: HAMSTER, LIVER, S-9, AROCLOR 1254 (10%), Method: PREINCUBATION): inactive; negative
- mutagenic call (Test System: AMES SALMONELLA TYPHIMURIUM, Strain/Indicator: TA98, Metabolic Activation: HAMSTER, LIVER, S-9, AROCLOR 1254 (30%), Method: PREINCUBATION): inactive; negative
- mutagenic call (Test System: AMES SALMONELLA TYPHIMURIUM, Strain/Indicator: TA98, Metabolic Activation: HAMSTER, LIVER, S-9, AROCLOR 1254, Method: STANDARD PLATE): inactive; negative
- mutagenic call (Test System: AMES SALMONELLA TYPHIMURIUM, Strain/Indicator: TA98, Metabolic Activation: HAMSTER, LIVER, S-9, PCB, Method: PREINCUBATION): inactive; negative
- mutagenic call (Test System: AMES SALMONELLA TYPHIMURIUM, Strain/Indicator: TA98, Metabolic Activation: MOUSE, LIVER, S-9, AROCLOR 1254, Method: STANDARD PLATE): inactive; negative
- mutagenic call (Test System: AMES SALMONELLA TYPHIMURIUM, Strain/Indicator: TA98, Metabolic Activation: MOUSE, LIVER, S-9, PCB, Method: PREINCUBATION): inactive; negative
- mutagenic call (Test System: AMES SALMONELLA TYPHIMURIUM, Strain/Indicator: TA98, Metabolic Activation: NONE, Method: PREINCUBATION): inactive; negative
- mutagenic call (Test System: AMES SALMONELLA TYPHIMURIUM, Strain/Indicator: TA98, Metabolic Activation: NONE, Method: STANDARD PLATE): inactive; negative
- mutagenic call (Test System: AMES SALMONELLA TYPHIMURIUM, Strain/Indicator: TA98, Metabolic Activation: RAT, LIVER, S-9, AROCLOR 1254 (10%), Method: PREINCUBATION): inactive; negative
- mutagenic call (Test System: AMES SALMONELLA TYPHIMURIUM, Strain/Indicator: TA98, Metabolic Activation: RAT, LIVER, S-9, AROCLOR 1254 (30%), Method: PREINCUBATION): inactive; negative
- mutagenic call (Test System: AMES SALMONELLA TYPHIMURIUM, Strain/Indicator: TA98, Metabolic Activation: RAT, LIVER, S-9, AROCLOR 1254, Method: STANDARD PLATE): inactive; negative
- mutagenic call (Test System: AMES SALMONELLA TYPHIMURIUM, Strain/Indicator: TA98, Metabolic Activation: RAT, LIVER, S-9, PCB, Method: PREINCUBATION): inactive; negative
- mutagenic call (Test System: AMES SALMONELLA TYPHIMURIUM, Strain/Indicator: TA98, Metabolic Activation: RAT, LIVER, S-9, PCB, Method: STANDARD PLATE): inactive; negative
- mutagenic call (Test System: AMES SALMONELLA TYPHIMURIUM, Strain/Indicator: TA100, Metabolic Activation: GUINEA PIG, LIVER, S-9, PCB, Method: PREINCUBATION): inactive; negative
- mutagenic call (Test System: AMES SALMONELLA TYPHIMURIUM, Strain/Indicator: TA100, Metabolic Activation: HAMSTER, LIVER, S-9, AROCLOR 1254 (10%), Method: PREINCUBATION): inactive; negative
- mutagenic call (Test System: AMES SALMONELLA TYPHIMURIUM, Strain/Indicator: TA100, Metabolic Activation: HAMSTER, LIVER, S-9, AROCLOR 1254 (30%), Method: PREINCUBATION): inactive; negative
- mutagenic call (Test System: AMES SALMONELLA TYPHIMURIUM, Strain/Indicator: TA100, Metabolic Activation: HAMSTER, LIVER, S-9, AROCLOR 1254, Method: STANDARD PLATE): inactive; negative
- mutagenic call (Test System: AMES SALMONELLA TYPHIMURIUM, Strain/Indicator: TA100, Metabolic Activation: HAMSTER, LIVER, S-9, PCB, Method: PREINCUBATION): inactive; negative
- mutagenic call (Test System: AMES SALMONELLA TYPHIMURIUM, Strain/Indicator: TA100, Metabolic Activation: MOUSE, LIVER, S-9, AROCLOR 1254, Method: STANDARD PLATE): inactive; negative
- mutagenic call (Test System: AMES SALMONELLA TYPHIMURIUM, Strain/Indicator: TA100, Metabolic Activation: MOUSE, LIVER, S-9, PCB, Method: PREINCUBATION): inactive; negative
- mutagenic call (Test System: AMES SALMONELLA TYPHIMURIUM, Strain/Indicator: TA100, Metabolic Activation: NONE, Method: PREINCUBATION): inactive; negative
- mutagenic call (Test System: AMES SALMONELLA TYPHIMURIUM, Strain/Indicator: TA100, Metabolic Activation: NONE, Method: STANDARD PLATE): inactive; negative
- mutagenic call (Test System: AMES SALMONELLA TYPHIMURIUM, Strain/Indicator: TA100, Metabolic Activation: RAT, LIVER, S-9, AROCLOR 1254 (10%), Method: PREINCUBATION): inactive; negative
- mutagenic call (Test System: AMES SALMONELLA TYPHIMURIUM, Strain/Indicator: TA100, Metabolic Activation: RAT, LIVER, S-9, AROCLOR 1254 (30%), Method: PREINCUBATION): inactive; negative
- mutagenic call (Test System: AMES SALMONELLA TYPHIMURIUM, Strain/Indicator: TA100, Metabolic Activation: RAT, LIVER, S-9, AROCLOR 1254, Method: STANDARD PLATE): inactive; negative
- mutagenic call (Test System: AMES SALMONELLA TYPHIMURIUM, Strain/Indicator: TA100, Metabolic Activation: RAT, LIVER, S-9, PCB, Method: PREINCUBATION): inactive; negative
- mutagenic call (Test System: AMES SALMONELLA TYPHIMURIUM, Strain/Indicator: TA100, Metabolic Activation: RAT, LIVER, S-9, PCB, Method: STANDARD PLATE): inactive; negative
- mutagenic call (Test System: AMES SALMONELLA TYPHIMURIUM, Strain/Indicator: TA1535, Metabolic Activation: HAMSTER, LIVER, S-9, AROCLOR 1254 (10%), Method: PREINCUBATION): inactive; negative
- mutagenic call (Test System: AMES SALMONELLA TYPHIMURIUM, Strain/Indicator: TA1535, Metabolic Activation: HAMSTER, LIVER, S-9, AROCLOR 1254 (30%), Method: PREINCUBATION): inactive; negative
- mutagenic call (Test System: AMES SALMONELLA TYPHIMURIUM, Strain/Indicator: TA1535, Metabolic Activation: HAMSTER, LIVER, S-9, AROCLOR 1254, Method: STANDARD PLATE): inactive; negative
- mutagenic call (Test System: AMES SALMONELLA TYPHIMURIUM, Strain/Indicator: TA1535, Metabolic Activation: MOUSE, LIVER, S-9, AROCLOR 1254, Method: STANDARD PLATE): inactive; negative
- mutagenic call (Test System: AMES SALMONELLA TYPHIMURIUM, Strain/Indicator: TA1535, Metabolic Activation: NONE, Method: PREINCUBATION): inactive; negative
- mutagenic call (Test System: AMES SALMONELLA TYPHIMURIUM, Strain/Indicator: TA1535, Metabolic Activation: NONE, Method: STANDARD PLATE): inactive; negative
- mutagenic call (Test System: AMES SALMONELLA TYPHIMURIUM, Strain/Indicator: TA1535, Metabolic Activation: RAT, LIVER, S-9, AROCLOR 1254 (10%), Method: PREINCUBATION): inactive; negative
- mutagenic call (Test System: AMES SALMONELLA TYPHIMURIUM, Strain/Indicator: TA1535, Metabolic Activation: RAT, LIVER, S-9, AROCLOR 1254 (30%), Method: PREINCUBATION): inactive; negative
- mutagenic call (Test System: AMES SALMONELLA TYPHIMURIUM, Strain/Indicator: TA1535, Metabolic Activation: RAT, LIVER, S-9, AROCLOR 1254, Method: STANDARD PLATE): inactive; negative
- mutagenic call (Test System: AMES SALMONELLA TYPHIMURIUM, Strain/Indicator: TA1537, Metabolic Activation: HAMSTER, LIVER, S-9, AROCLOR 1254, Method: STANDARD PLATE): inactive; negative
- mutagenic call (Test System: AMES SALMONELLA TYPHIMURIUM, Strain/Indicator: TA1537, Metabolic Activation: MOUSE, LIVER, S-9, AROCLOR 1254, Method: STANDARD PLATE): inactive; negative
- mutagenic call (Test System: AMES SALMONELLA TYPHIMURIUM, Strain/Indicator: TA1537, Metabolic Activation: NONE, Method: STANDARD PLATE): inactive; negative
- mutagenic call (Test System: AMES SALMONELLA TYPHIMURIUM, Strain/Indicator: TA1537, Metabolic Activation: RAT, LIVER, S-9, AROCLOR 1254, Method: STANDARD PLATE): inactive; negative
- mutagenic call (Test System: AMES SALMONELLA TYPHIMURIUM, Strain/Indicator: TA1537, Metabolic Activation: RAT, LIVER, S-9, PCB, Method: STANDARD PLATE): inactive; negative
- mutagenic call (Test System: AMES SALMONELLA TYPHIMURIUM, Strain/Indicator: TA1538, Metabolic Activation: HAMSTER, LIVER, S-9, AROCLOR 1254, Method: STANDARD PLATE): inactive; negative
- mutagenic call (Test System: AMES SALMONELLA TYPHIMURIUM, Strain/Indicator: TA1538, Metabolic Activation: MOUSE, LIVER, S-9, AROCLOR 1254, Method: STANDARD PLATE): inactive; negative
- mutagenic call (Test System: AMES SALMONELLA TYPHIMURIUM, Strain/Indicator: TA1538, Metabolic Activation: NONE, Method: STANDARD PLATE): inactive; negative
- mutagenic call (Test System: AMES SALMONELLA TYPHIMURIUM, Strain/Indicator: TA1538, Metabolic Activation: RAT, LIVER, S-9, AROCLOR 1254, Method: STANDARD PLATE): inactive; negative
- mutagenic call (Test System: AMES SALMONELLA TYPHIMURIUM, Strain/Indicator: TA1538, Metabolic Activation: RAT, LIVER, S-9, PCB, Method: STANDARD PLATE): inactive; negative
- mutagenic call (Test System: E. COLI, Strain/Indicator: WP2 UVRA, Metabolic Activation: HAMSTER, LIVER, S-9, AROCLOR 1254, Method: STANDARD PLATE): inactive; negative
- mutagenic call (Test System: E. COLI, Strain/Indicator: WP2 UVRA, Metabolic Activation: HAMSTER, LIVER, S-9, Method: STANDARD PLATE): inactive; negative
- mutagenic call (Test System: E. COLI, Strain/Indicator: WP2 UVRA, Metabolic Activation: MOUSE, LIVER, S-9, AROCLOR 1254, Method: STANDARD PLATE): inactive; negative
- mutagenic call (Test System: E. COLI, Strain/Indicator: WP2 UVRA, Metabolic Activation: MOUSE, LIVER, S-9, Method: STANDARD PLATE): inactive; negative
- mutagenic call (Test System: E. COLI, Strain/Indicator: WP2 UVRA, Metabolic Activation: NONE, Method: STANDARD PLATE): inactive; negative
- mutagenic call (Test System: E. COLI, Strain/Indicator: WP2 UVRA, Metabolic Activation: RAT, LIVER, S-9, AROCLOR 1254, Method: STANDARD PLATE): inactive; negative
- mutagenic call (Test System: E. COLI, Strain/Indicator: WP2 UVRA, Metabolic Activation: RAT, LIVER, S-9, PCB, Method: STANDARD PLATE): inactive; negative
- mutagenic call (Test System: E. COLI, Strain/Indicator: WP2 UVRA, Metabolic Activation: RAT, LIVER, S-9, Method: STANDARD PLATE): inactive; negative
